From patent publication US20220257713A1, “COMPOUND AND COMPOSITIONS FOR MULTITARGET TREATMENT OF TAU PROTEIN-RELATED DISORDERS” (FONDAZIONE IRCCS ISTITUTO NEUROLOGICO CARLO BESTA, priority 2019, published 2022)
Residues, ends and D or L forms follow the SMILES beside them.

Legend:
[1] = tested on: APPSwe/PS1DE9; settings: mouse, in vivo, 50 mg/kg
Description: FIG. 4. Mouse brain distribution of Aβ1-6A2V (D) peptide 2 hours after the last intranasal administration: A) Control and B) Treated Mice. FIG. 5. Effect of Aβ1-6A2V(D) on Aβ oligomer formation in the brain: biochemical assessment. APPSwe/PS1DE9 were treated with Aβ1-6A2V(D) at 50 mg/kg for five months. Control group was treated intranasally with PBS. A: Levels of Aβ aggregates in soluble and insoluble brain fractions after 2.5 months of treatment. B: Levels of Aβ aggregates in soluble and insoluble brain fractions after five months of treatment. * p<0.01; *** p<0.001. FIG. 6. Effect of Aβ1-6A2V(D) on Aβ deposits in mouse brain: neuropathological assessment. A: APPSwe/PS1DE9 were treated with Aβ1-6A2V(D) daily for five months at 50 mg/kg. Control group (CTRL) was treated intranasally with PBS. Amyloid burden measured by plaque count. ** p<0.01; *** p<0,001. B: Immunohistochemistry with the 4G8 anti-Aβ antibody. FIG. 7. Effect of Aβ1-6A2V(D) on synaptopathy. Subcellular fractionation of hippocampal homogenates from mice treated with Aβ1-6A2V(D) (right columns) or PBS (left columns). Western blot analysis with antibodies against synaptic receptors (NMDA-2A, GluN2B, GluA1 and GluA2) and scaffold protein (PSD95). The treatment with Aβ1-6A2V(D) preserved synaptic integrity. […]

[2] = mouse, in vivo, 16.7 mg/kg

SMILES: CC(C)[C@@H](NC(=O)[C@H](N)CC(=O)O)C(=O)N[C@H](CCC(=O)O)C(=O)N[C@H](Cc1ccccc1)C(=O)N[C@H](CCCNC(=N)N)C(=O)N[C@H](Cc1c[nH]cn1)C(=O)O [Aβ1-6A2V(D)] (HELM PEPTIDE1{[dD].[dV].[dE].[dF].[dR].[dH]}$$$$V2.0; N-terminus and C-terminus assumed)
- Diffusion of the peptide in brain tissue [1]: consistent diffusion of the peptide in brain tissue
- Diffusion of the peptide in brain tissue [2]: consistent diffusion of the peptide in brain tissue
- Presence of the peptide in cerebral cortex 48 hours after last treatment [2]: can be still observed in the cerebral cortex
